pIC50: −log10 of the molar value.
How the values were obtained:
[1] = tested on: HDF normal diploid fibroblast cells; assay: FACS assay (cell death), HDF; type: cell-based; details: 50% cell death, 72 h
Method: These assays allow determination of both cell death and changes in cell cycle profile in cells following treatment of the compound. The assay is performend as follows: • 1. Cells are incubated in DMEM to which 10% FCS has been added in a humidified incubator at 37° C. and 5% by volume of CO2 in air. The cells are innoculated in 6-well plates at a density of 0.5–5×10^5 cells per well. • 2. The test compound is added in serial dilutions 24–36 h after plating in 0.5% DMSO. The plates are then incubated a further 72 h in the presence of the compound. During this time, cells in control cultures undergo at least three cell divisions. • 3. After incubation, the media is collected and cells are harvested by trypsinization. The cells and media are pooled and pelleted by centrifugation. • 4. The cell pellet is fixed in a final volume of 3 mL of 50% ice cold MeOH and incubated for a minimum of 30 min at −20° C. • 5. The cells are pelleted by centrifugation and resuspended in 0.5 mL PBS containing 1%FCS, […] Propidium Iodide (PI) and 5 mg/mL RNase A and incubated 30 min at 37° C. in the dark. • 6. The samples are analysed by flow cytometry using the relative incorporation of PI as a measure of DNA content of each cell. The % Dead cells is recorded as % of events with less than 2N DNA. […] HDF are normal diploid fibroblast cells. RKO are colon adenocarcinoma cells and MES/SA are ovarian carcinoma cells.

[2] = tested on: HDF normal diploid fibroblast cells; assay: MTT assay, HDF; type: cell-based; details: Fibroblast, 72 h
Method: Compounds are tested for their ability to inhibit cell proliferation and cell viability. The metabolic conversion of 3-(4,5-dimethylthiazol-2-yl)-2,5-diphenyltetrazolium bromide (MTT, Sigma #M2128) to a reduced form is a commonly used measure of cellular viability. Following is the procedure: Cells are maintained in 75 cm^2 tissue culture flasks until ready for use. The cells are grown and plated for the assay in Dulbecco's modified Eagle's media (DMEM) containing 10% fetal bovine serum. For example, the following cell lines can be used: a) human foreskin fibroblasts (HFF); b) HT29 (human colon carcinoma cell line); c) MDA-MB468 (human breast carcinoma cell line); d) RKO (human colon adenocarcinoma cell line); e) SW620 (human colon carcinoma cell line); f A549 (human lung carcinoma cell line); and g) MIA PACA (human pancreatic carcinoma cell line). Cells are maintained at 37° C. in 10% CO2, 90% humidified air. Cells are plated in 96-well tissue culture plates at the densities listed below. 100 μL of cell suspension is added to each well of the 96-well plate except the top row of the plate which contains no cells and serves as a reference for the spectrophotometer. [table] Cells are incubated overnight in DMEM containing 10% fetal bovine serum at 37° C. in 10% CO2, 90% humidified air prior to dosing. […] Compounds with solubilities of less than 30 μM are dosed at the highest soluble concentration. Stock solutions of compounds are made in 100% dimethyl sulfoxide (DMSO). Stock solutions are diluted in DMEM containing 100 μg/ml gentamicin and 0.3 to 0.6% DMSO at the twice the highest concentration to be placed on the cells. If compounds have been dissolved in DMSO the final concentration of DMSO on the cells is kept below 0.3%. Three-fold serial dilutions are performed on each compound to prepare 10 concentrations of the compound for dosing. 100 μl of diluted compound is added to the 100 μl of media currently on the dish. For each concentration of compound, 2–4 replicate wells are prepared. Cells are returned to incubator and allowed to proliferate in the presence of compound for 72 h before addition of MTT. […] After 4 h incubation the media, compound and MTT mixture is aspirated from the plates and 100 μl of 100% DMSO is added to each well in addition to 25 μl of Sorenson's Buffer (0.1M glycine, 0.1M NaCl, pH 10.5). Quantitation of metabolic reduction of MTT in each plate is performed by reading optical density at 570 nm wavelength on a Molecular Devices UVmax microplate reader. […] HDF are normal diploid fibroblast cells. RKO are colon adenocarcinoma cells and MES/SA are ovarian carcinoma cells.

[3] = tested on: etoposide-induced alopecia; assay: Protection from chemotherapy-induced alopecia in rat pups; type: in vivo, Sprague-Dawley rat; details: 6 mg/kg etoposide intraperitoneally
Method: Protection from chemotherapy-induced alopecia is determined in 7 day old Sprague-Dawley rat pups. The treatment is carried out by administering the compounds topically to the head of the animal in doses from 0.01 to 10 mg/kg 2 h before and 2 h after the administration of a single dose of 6 mg/kg etoposide intraperitoneally. Six days after dosing, animals are scored visually for hair loss using a grading scale from 1 (complete hair loss) to 4 (no apparent hair loss). In this assay, the prior treatment of the animal with the compound of this invention results in a marked reduction in the severity of alopecia compared to vehicle treated controls. Under the above described conditions of treatment, the compounds of the present invention also protect against other toxicities of etoposide. […] Animals treated with the compounds of the present invention in combination with etoposide, in the schedule indicated above, gain weight normally and even exceed the body weight of control, untreated animals.

[4] = molecular target: T1, c-fms (Homo sapiens, UniProt P07333); assay: c-fms protein kinase assay (SPA); type: biochemical; details: Table 7, class symbols; read-out: c-fms kinase inhibition IC50
T1 sequence (P07333 539-972 limits assumed): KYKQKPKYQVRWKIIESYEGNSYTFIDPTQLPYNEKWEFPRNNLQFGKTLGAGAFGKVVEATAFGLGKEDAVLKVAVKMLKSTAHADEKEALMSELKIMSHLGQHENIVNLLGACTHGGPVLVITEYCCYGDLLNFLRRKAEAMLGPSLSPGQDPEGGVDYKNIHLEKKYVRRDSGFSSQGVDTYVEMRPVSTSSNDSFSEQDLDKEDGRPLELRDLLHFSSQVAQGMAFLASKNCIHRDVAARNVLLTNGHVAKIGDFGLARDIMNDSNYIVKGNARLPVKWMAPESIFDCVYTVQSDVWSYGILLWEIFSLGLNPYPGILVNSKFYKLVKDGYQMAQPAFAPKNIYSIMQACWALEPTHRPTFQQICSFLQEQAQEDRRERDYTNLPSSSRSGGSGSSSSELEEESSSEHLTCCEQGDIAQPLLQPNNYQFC
Method: c-fms protein kinase assays utilized the peptide substrate, biotin-[…]-NH2, as the phosphoryl group acceptor. The c-fms intracellular domain was expressed from a baculovirus expression system, as an amino-terminal GST fusion protein, and purified to homogeneity using Glutathione agarose from Sigma Chemical Co. Maximum activation of the enzyme was achieved by preactivation at room temperature for 120 min in the presence of 100 μM ATP and 15 mM MgCl2, This enzyme stock was diluted to 150 nM prior to using in the assay. Typically assays were performed in white, opaque, 96-well plates in a 45 ul assay volume including 15 ul 6% DMSO, with or without compounds, 15 ul of the preactivated, diluted enzyme, and 15 ul of a substrate mixture. Reactions contained 50 mM HEPES, pH 7.5, 1.7 μM ATP, 15 mM MgCl2, 3 μM peptide, 2.5 mM DTT, 50 mM NaCl and 0.15 uCi/assay [^32P]ATP. The controls were reactions in the presence (negative controls) or absence (positive controls) of 50 mM EDTA. Reactions were allowed to proceed for 90 min at room temperature. The reaction products were quantified using Scintillation Proximity technolgy. […] Plates were sealed and counted in a Packard Topcount scintillation counter. […]

[5] = molecular target: CDK2 (Homo sapiens, UniProt P24941); assay: CDK2 substrate phosphorylation assay; type: biochemical
Method: CDK1 and CDK2 were both expressed utilizing a baculovirus expression system and were partially purified to comprise 20–80% of total protein, with no detectable competing reactions present. […] Reactions were terminated with 0.2–2 volumes of either 20% acetic acid or 50–100 mM EDTA buffered to pH 7 (substrate consumption <20%). The buffer employed in enzyme assays was either 30 mM HEPES 7.4 containing 0.15 M NaCl and 5% DMSO, the buffer 50 mM MOPS 7.0 containing 0.15 M NaCl and 5% DMSO, or the buffer 100 mM HEPES pH 7.5 containing 0.1 mg/mL BSA and 5% DMSO. Inhibitors were diluted in 100% DMSO prior to addition into the assay. Detection of peptide phosphorylation was accomplished by scintillation counting following either collection of peptide onto phosphocellulose filters (for reactions stopped with acetic acid), collection of peptide in wells of 96 well plates coated with Streptavidin (Pierce) (reactions were stopped with EDTA), or addition of Avidin coated Scintillant impregnated beads (Scintillation Proximity Assays from Amersham, reactions were stopped with EDTA).
CDK1 and CDK2 were both expressed utilizing a baculovirus expression system and were partially purified to comprise 20–80% of total protein, with no detectable competing reactions present. […]

| SMILES | pIC50 [1] | pIC50 [2] | also measured |
| --- | --- | --- | --- |
| O=C1Nc2ccc3ncsc3c2C1=CNc1ccc2nn[nH]c2c1 [Example 101, 8-(3H-Benzotriazol-5-ylaminomethylene)-6,8-dihydro-1-thia-3,6-diaza-as-indacene-7-one] | < 5.30 | < 5.30 |  |
| COc1cc([C@@H]2c3cc4c(cc3[C@@H](O[C@@H]3O[C@@H]5CO[C@@H](C)O[C@H]5[C@H](O)[C@H]3O)[C@H]3COC(=O)[C@H]23)OCO4)cc(OC)c1O [etoposide] |  |  | body weight gain, etoposide alone compared to untreated animals [3]: dramatic lack of weight gain |
| CC(C)(CO)CNS(=O)(=O)c1ccc(NC=C2C(=O)Nc3ccc4ncsc4c32)cc1 [Example 77, N-(3-Hydroxy-2,2-dimethyl-propyl)4-[(7-oxo-6,7-dihydro-1-thia-3,6-diaza-as-indacen-8-ylidenemethyl)-amino]-benzenesulfonamide] | < 5.30 | < 5.30 |  |
| O=C1Nc2ccc3ncccc3c2/C1=C/Nc1ccc(CCO)cc1 [Example 32] |  |  | pIC50 [4]: < 7.00 |
| CCC(C)Cc1cccc2c1C(=NNc1ccc(S(N)(=O)=O)cc1)C(=O)N2 (stereo not drawn) [Example 11] | < 5.30 |  |  |
| CC(C)COC(=O)c1ccc2c(c1)C(=CNc1ccc(S(N)(=O)=O)cc1)C(=O)N2 [Example 103, 2-Oxo-3-(4-sulfamoyl-phenylamino-methylene)-2,3-dihydro-1H-indole-5-carboxylic acid isobutyl ester] |  | 5.30 to 5.96 |  |
| CN(C)S(=O)(=O)c1ccc(NC=C2C(=O)Nc3ccc(-c4cnco4)cc32)cc1 [Example 35] | < 5.30 | < 5.30 |  |
| CS(=O)(=O)Cc1ccc(NC=C2C(=O)Nc3ccc4ncsc4c32)cc1 [Example 76, 8-(4-Methylsulfonylmethyl-phenylamino-methylene)-6,8-dihydro-1-thia-3,6-diaza-as-indacen-7-one] | < 5.30 | < 5.30 |  |
| CNS(=O)(=O)Cc1ccc(NN=C2C(=O)Nc3cc(C)c(O)c(C)c32)cc1 [Example 99] | < 5.30 | 6.00 to 6.22 | pIC50 [5]: 7.00 to 7.29 |
